In this assay the target is T1, human β2 adrenergic receptor (Homo sapiens, UniProt P07550).
T1 construct: expressed in transfected cells; host or cells: CHO (Chinese Hamster Ovary) cells, CHOhβ2
T1 sequence (P07550 whole entry): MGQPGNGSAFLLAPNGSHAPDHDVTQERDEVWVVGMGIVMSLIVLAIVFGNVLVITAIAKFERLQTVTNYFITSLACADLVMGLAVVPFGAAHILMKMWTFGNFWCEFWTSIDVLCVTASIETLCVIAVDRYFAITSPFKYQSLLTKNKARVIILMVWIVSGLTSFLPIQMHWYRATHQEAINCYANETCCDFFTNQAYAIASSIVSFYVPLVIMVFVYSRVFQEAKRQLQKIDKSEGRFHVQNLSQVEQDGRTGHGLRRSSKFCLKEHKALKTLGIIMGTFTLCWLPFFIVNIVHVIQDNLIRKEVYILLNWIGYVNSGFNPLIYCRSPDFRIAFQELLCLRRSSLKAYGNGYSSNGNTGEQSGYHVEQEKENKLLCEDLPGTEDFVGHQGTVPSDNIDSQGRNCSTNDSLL
Nature of the assay: β2 cAMP agonist potency assay in CHOhβ2 cells (cAMP-Flashplate). Conditions: CHO cells recombinantly expressing the human β2 adrenergic receptor; compounds incubated with cells for 1 hour; data as % Isoprenaline activity, four parameter sigmoid fit. The format is cell-based. As to the method: According to another alternative, the agonist potency for the β2 receptor of the compounds of the formula (1) may also be determined by the measure of the concentration of compound according to the present invention required to produce half maximal effect (EC50) for the β2 receptor.
10 mM/100% DMSO (dimethylsulfoxide) stock of compound is diluted to required top dose in 4% DMSO. This top dose is used to construct a 10-point semi-log dilution curve, all in 4% DMSO. Isoprenaline (Sigma, 1-5627) was used as a standard in every experiment and for control wells on each plate. Data was expressed as % Isoprenaline response.
CHO (Chinese Hamster Ovary) cells recombinantly expressing the human β2 adrenergic receptor (from Kobilka et al., PNAS 84: 46-50, 1987 and Bouvier et al., Mol Pharmacol 33: 133-139 1988 CHOhβ2) were grown in Dulbeccos MEM/NUT MIX F12 (Gibco, 21331-020) supplemented with 10% foetal bovine serum (Sigma, F4135, Lot 90K8404 Exp 09/04), 2 mM glutamine (Sigma, G7513), 500 μg/ml geneticin (Sigma, G7034) and 10 μg/ml puromycin (Sigma, P8833). Cells were seeded to give about 90% confluency for testing.
25 μl/well each dose of compound was transferred into a cAMP-Flashplate® (NEN, SMP004B), with 1% DMSO as basal controls and 100 nM Isoprenaline as max controls. This was diluted 1:2 by the addition of 25 μl/well PBS. Cells were trypsinised (0.25% Sigma, T4049), washed with PBS (Gibco, 14040-174) and resuspended in stimulation buffer (NEN, SMP004B) to give 1×10^6 cells/ml CHOhB2. Compounds were incubated with 50 μl/well cells for 1 hour. Cells were then lysed by the addition of 100 μl/well detection buffer (NEN, SMP004B) containing 0.18 μCi/ml ^125I-cAMP (NEN, NEX-130) and plates were incubated at room temperature for a further 2 hours. The amount of ^125I-cAMP bound to the Flashplate® was quantified using a Topcount NXT (Packard), normal counting efficiency for 1 minute. Dose-response data was expressed as % Isoprenaline activity and fitted using a four parameter sigmoid fit. […] The following table illustrate the activity of the compounds of the invention: […]
By EC50 is commonly meant the concentration at which the effect is half-maximal. Take `COc1cc(CNC(=O)Cc2cccc(CC(C)(C)NC[C@H](O)c3ccc(O)c(NS(C)(=O)=O)c3)c2)ccc1O` [Example 1, 2-(3-{2-[((2R)-2-Hydroxy-2-{4-hydroxy-3-[(methylsulfonyl)amino]phenyl}ethyl)amino]-2-methylpropyl}phenyl)-N-(4-hydroxy-3-methoxybenzyl)acetamide]: the EC50 stood at 0.03 nM.
`CC(C)(Cc1cccc(CC(=O)NCc2ccc(-c3ccc(O)cc3)cc2)c1)NC[C@H](O)c1ccc(O)c(NS(C)(=O)=O)c1` [Example 2, N-[(4′-Hydroxybiphenyl-4-yl)methyl]-2-(3-{2-[((2R)-2-hydroxy-2-{4-hydroxy-3-[(methylsulfonyl)amino]phenyl}ethyl)amino]-2-methylpropyl}phenyl)acetamide]: the EC50 worked out at 0.24 nM.
In the case of `CC(C)(Cc1cccc(CC(=O)NCc2ccc3cc(O)ccc3c2)c1)NC[C@H](O)c1ccc(O)c(NS(C)(=O)=O)c1` [Example 6] it was 0.16 nM.
In the case of `CC(C)(Cc1cccc(CC(=O)NCc2cccc(-c3ccc(O)cc3)c2)c1)NC[C@H](O)c1ccc(O)c(NS(C)(=O)=O)c1` [Example 7, N-[(4′-Hydroxybiphenyl-3-yl)methyl]-2-(3-{2-[((2R)-2-hydroxy-2-{4-hydroxy-3-[(methylsulfonyl)amino]phenyl}ethyl)amino]-2-methylpropyl}phenyl)acetamide] it was 0.26 nM; in that of `CC(C)(Cc1cccc(CC(=O)NCC(C)(C)c2ccc(O)cc2)c1)NC[C@H](O)c1ccc(O)c(NS(C)(=O)=O)c1` [Example 9, 2-(3-{2-[((2R)-2-Hydroxy-2-(4-hydroxy-3-[(methylsulfonyl)amino]phenyl)ethyl)amino]-2-methylpropyl}phenyl)-N-[2-(4-hydroxyphenyl)-2-methylpropyl]acetamide], 0.45 nM.
In the case of `CC(C)(Cc1cccc(CC(=O)N2CCc3cc(O)ccc3C2)c1)NC[C@H](O)c1ccc(O)c(NS(C)(=O)=O)c1` [Example 13, N-(2-Hydroxy-5-{(1R)-1-hydroxy-2-[(2-{3-[2-(6-hydroxy-3,4-dihydroisoquinolin-2(1H)-yl)-2-oxoethyl]phenyl}-1,1-dimethylethyl)amino]ethyl}phenyl)methanesulfonamide] it was 0.08 nM; in that of `CC(C)(Cc1cccc(CC(=O)NCCc2ccc(O)cc2)c1)NC[C@H](O)c1ccc(O)c(NS(C)(=O)=O)c1` [Example 15, 2-(3-{2-[((2R)-2-Hydroxy-2-{4-hydroxy-3-[(methylsulfonyl)amino]phenyl}ethyl)amino]-2-methylpropyl}phenyl)-N-[2-(4-hydroxyphenyl)ethyl]acetamide], 0.09 nM.
For the compound `CC(C)(Cc1cccc(CC(=O)NCc2cc(O)cc(C(F)(F)F)c2)c1)NC[C@H](O)c1ccc(O)c(NS(C)(=O)=O)c1` [Example 20, 2-(3-{2-[((2R)-2-Hydroxy-2-{4-hydroxy-3-[(methylsulfonyl)amino]phenyl}ethyl)amino]-2-methylpropyl}phenyl)-N-[3-hydroxy-5-(trifluoromethyl)benzyl]acetamide], the EC50 is 0.29 nM.

Source of the values: patent US7528170B2, “Sulfonamide derivatives for the treatment of diseases” (Pfizer Inc., priority 2004, dated 2009).
